# Assay results from PMC6965176, “Targeting Forward and Reverse EphB4/EFNB2 Signaling by a Peptide with Dual Functions” (Scientific Reports, 2020).
# Non-standard residues stand in square brackets, D forms with d. Residues, ends and D or L forms follow the SMILES beside them.
# Legend:
# [1] = target: T1, EphB4 on the surface of A2780cp20 cells (Homo sapiens, UniProt P54760); experiment: Cell-based binding assay: displacement of EFNB2-Fc from A2780cp20 cells (flow cytometry); conditions: EFNB2-Fc 20 nM, BIDEN-AP 0-100 µM, 25 °C, 1 h, PE-anti-Fc flow cytometry, duplicate (Fig. 1D,E)
# T1 construct: endogenous in cells; host or cells: A2780cp20 ovarian cancer cells
# T1 sequence (P54760 16-987): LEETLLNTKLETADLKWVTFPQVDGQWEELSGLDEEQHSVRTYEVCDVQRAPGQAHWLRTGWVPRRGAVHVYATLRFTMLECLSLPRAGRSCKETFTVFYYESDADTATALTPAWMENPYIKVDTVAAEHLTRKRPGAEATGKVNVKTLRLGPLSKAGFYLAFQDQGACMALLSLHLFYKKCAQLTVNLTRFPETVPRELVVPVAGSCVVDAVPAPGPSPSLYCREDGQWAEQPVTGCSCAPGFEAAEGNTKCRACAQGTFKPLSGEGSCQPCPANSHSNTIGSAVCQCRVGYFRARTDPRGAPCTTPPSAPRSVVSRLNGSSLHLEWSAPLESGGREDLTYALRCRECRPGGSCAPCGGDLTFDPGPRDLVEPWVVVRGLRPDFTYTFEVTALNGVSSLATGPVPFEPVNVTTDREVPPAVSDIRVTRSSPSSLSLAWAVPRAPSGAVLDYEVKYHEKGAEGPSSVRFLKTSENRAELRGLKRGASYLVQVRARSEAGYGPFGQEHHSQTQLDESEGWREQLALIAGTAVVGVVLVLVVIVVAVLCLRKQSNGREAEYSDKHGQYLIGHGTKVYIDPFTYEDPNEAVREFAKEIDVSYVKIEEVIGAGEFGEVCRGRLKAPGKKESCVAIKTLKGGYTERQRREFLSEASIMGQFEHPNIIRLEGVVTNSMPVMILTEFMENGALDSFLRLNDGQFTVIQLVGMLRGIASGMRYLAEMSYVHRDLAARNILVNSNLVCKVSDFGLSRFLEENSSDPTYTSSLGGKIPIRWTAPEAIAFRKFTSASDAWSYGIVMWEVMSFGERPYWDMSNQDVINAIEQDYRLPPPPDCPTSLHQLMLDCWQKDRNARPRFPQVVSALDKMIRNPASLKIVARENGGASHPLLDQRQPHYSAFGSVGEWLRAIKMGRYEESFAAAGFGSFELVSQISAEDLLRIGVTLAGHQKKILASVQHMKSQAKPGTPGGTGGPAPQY
# Protocol: Figure 1 Novel EphB4 agonist BIDEN-AP has high receptor binding affinity. (A) Structure of BIDEN-AP. D-Tyr-P3 is highlighted in red. (B) Surface plasmon resonance (SPR) sensorgrams of BIDEN-AP. Vertical axes, in response units (RU), represent binding of the peptide to immobilized EphB4. (C) Competition of BIDEN-AP with EFNB2-Fc for EphB4 binding. BIDEN-AP at concentrations from 2 nM to 1000 nM was mixed with human EphB4 (30 nM) and injected onto sensor chips coated with EFNB2-Fc. (D) Competition of BIDEN-AP with EFNB2-Fc for EphB4 binding at the cellular level. A2780cp20 cells were co-incubated with EFNB2-Fc (20 nM) and BIDEN-AP (at concentrations from 0 to 100 µM) at 25 °C for 1 h. EFNB2-Fc bound to the cells was probed with phycoerythrin-labeled anti-Fc antibody and analyzed by flow cytometry. (E) Bound EFNB2-Fc as a function of BIDEN-AP concentration. […]
# A2780cp20 ovarian cancer cells (1×10^6 cells/mL) were incubated with EFNB2-Fc (20 nM) and BIDEN-AP at concentrations ranging from 0 to 100 µM at 25 °C for 1 h. After washings, EFNB2-Fc bound to the cells were probed with phycoerythrin (PE)-labeled anti-Fc antibody and analyzed by flow cytometry. Binding of BIDEN-AP to A2780cp20 cells was determined by its capacity to displace EFNB2-Fc’s binding to the tumor cells, measured by decreased PE fluorescence signal. Cells were analyzed in a Cellquest fluorocytometer (BD Bioscience, San Jose, CA). […]
# [2] = test system: MDA-HGSC-1 PDX tumor; experiment: Subcutaneous MDA-HGSC-1 patient-derived xenograft model; format: in vivo, mice; conditions: 300 µg/injection i.p., 14 doses (Fig. S10B)
# Source text: Under Institutional Review Board (IRB protocol PA15-0441) and IACUC approval at MD Anderson Cancer Center, patients with HGSC who were being treated at MD Anderson gave consent for the use of their tumor tissue in this study. Four- to six-week-old female Balb C athymic nude mice (Harlan Laboratories) were implanted with one PDX 3×3×3 mm tumor cube (MDA-HGSOC-1 high-grade serous ovarian cancer; generation 9) in the dorsal flank to create subcutaneous HGSC-PDX model. Tumor size was monitored by caliber, and tumor volume was calculated using the formula V(cm^3) = (length x width^2)/2. Mice were randomly assigned to the PBS vehicle control or BIDEN-AP treatment group, 6 mice per group, once tumor size reached ~100 mm^3 (21 days after implantation). Treatments consisted of intraperitoneal injection of PBS or BIDEN-AP at 300 μg/injection (100 μL/injection) once every other day for a total of 14 doses. At the end of the study (day 49), all mice were euthanized, and tumors were collected, weighed, snap-frozen in optimal cutting temperature compound with liquid nitrogen, and cryosectioned into 5-μm sections for immunohistochemical staining of CD31 and Ki67 markers.
# incubated overnight at 4°C.
# Slides were subjected to recombinant terminal
# The slides were then labeled by adding
# Microvessel density was evaluated
# magnification from three tumor samples.
# For CD31 staining, slides were […]
structure (smiles),measurement,setting,value
CC[C@H](C)[C@H](NC(=O)[C@@H]1CCCN1C(=O)CNC(=O)[C@H](CC(N)=O)NC(=O)[C@@H]1CCCN1C(=O)[C@H](CO)NC(=O)[C@H](Cc1ccccc1)NC(=O)[C@H](CC(C)C)NC(=O)[C@@H](Cc1ccc(O)cc1)NC(=O)[C@H](CC(N)=O)NC(=O)[C@@H](N)[C@@H](C)O)C(=O)N[C@@H](C)C(=O)N[C@@H](CCCNC(=N)N)C(=O)N[C@@H](C)C(=O)N[C@@H](Cc1c[nH]c2ccccc12)C(N)=O [BIDEN-AP] (H-TN[dY]LFSPNGPIARAW-NH2),IC50,[1],~1000 nM
same,body weight change compared to control group,[2],did not cause body weight change
